The test system of one data set is Sprague-Dawley rats. The data set is described as follows: 6-Month Oral Toxicity Study in Sprague Dawley Rats. The format is in vivo, rat. Here is the method: (§1) In the longer-term studies Sprague-Dawley rats were administered PF-04895162 once daily for 28 days or 6 months at doses up to 100 mg/kg/day. […] The drug was well absorbed into the systemic circulation of male and female rats following oral administration for 6 months.

Data set [1] is described as follows: 6-Month Oral Toxicity Study in Sprague Dawley Rats. The settings on record: Sprague-Dawley, rat, plasma, oral. The class given is in vivo, rat. The protocol:
as §1

Read-outs that look alike come from different tables or passages of the source.

`O=C(Cc1ccc(F)cc1)Nn1c(C2CC2)nc2cc(F)ccc2c1=O` [PF‐04895162, N‐(2‐cyclopropyl‐7‐fluoro‐4‐oxoquinazolin‐3(4H)‐yl)‐2‐(4‐fluorophenyl)ethanamide]: the liver weights entry with Sprague-Dawley rats (6 months, up to 100 mg/kg/day) was “Increased liver weights”. For the same compound, the deaths result with Sprague-Dawley rats (10, 30 and 100 mg/kg/day, 6 months) is listed as “no test-article related deaths”. Besides, the “accumulation of parent drug / induction of drug metabolizing enzymes” value with Sprague-Dawley rats (by the end of the 6 month study) was “no evidence of accumulation of parent drug or any apparent induction of drug metabolizing enzymes”. Moreover, the “Microscopic changes in liver” value with Sprague-Dawley rats (females at 30 mg/kg/day and males and females at 100 mg/kg/day for 6 months) is recorded as “centrilobular hypertrophy”. Further, in the data set with Sprague-Dawley rats (females only, Days 1 and 91 at 30 and 100 mg/kg/day), the body temperature result is reported as “mild decrease in body temperature”. Also, the Mean food consumption result with Sprague-Dawley rats (males and females at 100 mg/kg/day, entire 6-month period) is recorded as “less compared to controls”. The clinical chemistry changes result in the data set with Sprague-Dawley rats (males and/or females at 30 and/or 100 mg/kg/day) is “higher phosphorus, potassium, bilirubin, and cholesterol values and lower chloride and glucose levels”. Also, the Mean body weights entry in the data set on Sprague-Dawley rats (males at 30 and 100 mg/kg/day, females at 100 mg/kg/day) is recorded as “lower compared to controls”. In the data set on Sprague-Dawley rats (once daily for 6 months, up to 100 mg/kg/day), the transaminases entry was “No transaminase elevations”. Further, the Cmax in data set [1] (both sexes, 100 mg/kg/day, studies >1 month in duration, read-out: total Cmax concentrations in the rat (male-female)) is 6.9 to 15.1 µM; in data set [1] (female, Day 1, 100 mg/kg/day, read-out: Total Cmax, female rats), 5350 ng/mL; in data set [1] (male, Day 1, 100 mg/kg/day, read-out: Total Cmax, male rats), 2460 ng/mL.

Source of the values: PMC6370995, “Phase I study of PF‐04895162, a Kv7 channel opener, reveals unexpected hepatotoxicity in healthy subjects, but not rats or monkeys: clinical evidence of disrupted bile acid homeostasis” (Pharmacology Research & Perspectives, 2019).
